Results reported in patent US4256462A, “Method and composition for determination of n-nitrosamines” (University of Iowa Research Foundation, priority 1979, dated 1981).

Assay: Denitrosation reaction time, iodo vs bromo salts
Settings: sodium iodide reagent
Excerpt: Particularly for the sodium iodide salt, the reaction will occur within one minute, whereas, when bromo salts are substituted, the reaction times are considerably longer, such as five minutes.

Question: With `[I-].[Na+]` [sodium iodide] as the molecule, how does the reaction time read?
Answer: one
